Test [1] addresses T1, Aβ oligomers (Homo sapiens, UniProt P05067).
T1 construct: Ser^26 depsipeptide iso-Aβ (1–42) was used; made in house; host or cells: chemical peptide synthesis (no expression host)
The test can be described thus: Isothermal titration calorimetry (ITC) binding to Aβ oligomers. The following applies: KD ITC, Table 1, PBS pH 7.4, 285 K, Aβ 100 µM in cell, ligand 250 µM in syringe, two independent site model.

Test [2] addresses T1, Aβ oligomers. In words: Sandwich ELISA binding of biotin-tagged conjugates to Aβ. An excerpt: To study the role of certain structure elements in the binding affinity, a set of new foldamer sequences were designed (Figure 2) and ligated to lysine-dendron scaffolds having a focal symmetry. This template with biotin affinity tag can be easily synthesized by solid phase peptide synthesis and immobilized on a streptavidin coated support such as the surface of the ELISA plate. Structural changes included fine-tuning the side-chain properties (2b–2d), changing the position of ionic residues (2e) and introducing bulky bicyclic side-chains (2f–2i).
The binding affinities of 2b–2i to Aβ oligomers were tested in ITC experiments. In such cases where the fitting failed due to low heat response or poor solubility, sandwich ELISA experiments were performed to enable the comparison of all conjugates (see Supporting Information for details).
The apparent dissociation constants for the complete set of new conjugates were calculated individually from the data of the ELISA experiments as well. Comparing the KD values of 2f–2i in this case, the replacement of ACHC to ABHC had only a minor effect on the Aβ binding. The cyclic β-amino acid ACHC not only provides the helical conformation of such a short foldamer but also protects the ionic residues from solvent upon binding due to its hydrophobicity.
(In general: In an ELISA, binding on a coated surface is turned into a signal by an enzyme label.)

The subject of test [3] is acute hippocampal slices. The test can be described thus: Ex vivo MTT tissue viability test on acute hippocampal slices treated with Aβ oligomers after oxygen-glucose deprivation. The class given is cell-based, Wistar rats. The following applies: 4 h, Aβ oligomers 10 µM alone, untreated slices as control, mean ± SD, N = 4. An excerpt:
We have applied a rapid, reliable assay, which utilizes acute hippocampal slices for MTT measurements to test the short-term effect of toxic Aβ oligomers on the viability of the surviving cells in the tissue. Acute hippocampal brain slices can be maintained ex vivo only for a few hours, thus excluding the possibility of studying the long-term effects of neuroprotective compounds. Still, the combination of oxygen-glucose deprivation and treatment with Aβ oligomers makes this assay applicable on a short-term basis, which is otherwise impossible with convenient in vitro methods. The Aβ treatment combined with this short and mild oxygen-glucose deprivation provided a relevant ex vivo model for the aging brain and a standard MTT assay was used for the quantification of toxicity (Table S2). Treatment with Aβ oligomers in 10 µM concentration caused a significant decrease in tissue viability after 4 h (Figure 5, white column, 43.2 ± 1.6% of control). To test the neuroprotective effects of the compounds, slices were treated with Aβ in the presence of equimolar amounts of 1, 3–6, respectively. […]
Toxicity measurements were carried out using freshly prepared slices (N = 2 × 10 for one case) of the brains of 10 ± 1-week-old Wistar rats (4 animals, thickness of the brain slices: 400 µm). […] After the treatment, brain slice viability was measured using a specific MTT assay. […]
(In general: Tetrazolium assays rely on reduction of a dye to a coloured formazan, in cell work by metabolically active cells.)

Test [4] has as its system SH-SY5Y neuroblastoma cells. Format: cell-based, human. The following applies: 24 h, Aβ oligomers 10 µM alone, mean ± SEM, N = 4–8. The procedure: Real-time cell impedance measurement assay (xCELLigence) was utilized to test the effects of Aβ and the protective effect of the compounds 1, 3–5 on SH-SY5Y neuroblastoma cells. Cells were treated with Aβ oligomers in the concentration of 10 µM either alone or together with compounds 1, 3–5, which were applied in two different concentrations (5 or 10 μM). The cell index was monitored continuously for 48 h. Figure 6 represents the viability readouts after 24 h and 48 h (Table S3). Aβ caused a significant reduction in the viability after 24 h (red column, 85.1 ± 2.6% of control) reflecting the effects of an elongated treatment. […]
Figure 6 Cell viability readouts based on impedance analysis after treatments at different time points: (A) 24 h (B) 48 h. […]
Differentiated SH-SY5Y cells were grown in Dulbecco’s Modified Eagle’s Medium (DMEM) and F12-Ham’s culture medium at a 1:1 ratio supplemented with 10% (v/v) fetal bovine serum (FBS), 1% (v/v) L-glutamine, and 50 µg/mL gentamicin. […] Cells were cultured for 5–7 days and monitored every 15 min until the end of experiments. […] The resulting data was analyzed using real-time cell analyzer software (RTCA, Roche, Basel, Switzerland) and exported to Excel.

In general, Kd refers to the concentration at which binding is half-saturated. Read a low Kd as higher affinity.

T1 sequence (P05067 672-713 limits assumed): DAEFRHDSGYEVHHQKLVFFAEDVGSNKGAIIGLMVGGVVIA

On to `CC1(C)[C@H]2C[C@H](N)[C@@H](C(=O)N[C@@H](CCCNC(=N)N)CC(=O)N[C@H]3CCCC[C@@H]3C(=O)N[C@H]3CCCC[C@@H]3C(=O)N[C@@H](CC(=O)O)CC(=O)N[C@H]3CCCC[C@@H]3C(=O)NCC(=O)NCC(=O)N[C@@H](CSC3CC(=O)N(CCC(=O)NCCCC[C@H](NC(=O)CCN4C(=O)CC(SC[C@H](NC(=O)CNC(=O)CNC(=O)[C@H]5CCCC[C@@H]5NC(=O)C[C@H](CC(=O)O)NC(=O)[C@H]5CCCC[C@@H]5NC(=O)[C@H]5CCCC[C@@H]5NC(=O)C[C@H](CCCNC(=N)N)NC(=O)[C@@H]5[C@@H](N)C[C@H]6C[C@@H]5C6(C)C)C(N)=O)C4=O)C(=O)NCCCC[C@H](NC(=O)[C@H](CCCCNC(=O)CCN4C(=O)CC(SC[C@H](NC(=O)CNC(=O)CNC(=O)[C@H]5CCCC[C@@H]5NC(=O)C[C@H](CC(=O)O)NC(=O)[C@H]5CCCC[C@@H]5NC(=O)[C@H]5CCCC[C@@H]5NC(=O)C[C@H](CCCNC(=N)N)NC(=O)[C@@H]5[C@@H](N)C[C@H]6C[C@@H]5C6(C)C)C(N)=O)C4=O)NC(=O)CCN4C(=O)CC(SC[C@H](NC(=O)CNC(=O)CNC(=O)[C@H]5CCCC[C@@H]5NC(=O)C[C@H](CC(=O)O)NC(=O)[C@H]5CCCC[C@@H]5NC(=O)[C@H]5CCCC[C@@H]5NC(=O)C[C@H](CCCNC(=N)N)NC(=O)[C@@H]5[C@@H](N)C[C@H]6C[C@@H]5C6(C)C)C(N)=O)C4=O)C(=O)N[C@@H](CCCCNC(=O)CCCC[C@@H]4SC[C@@H]5NC(=O)N[C@@H]54)C(N)=O)C3=O)C(N)=O)[C@@H]1C2` (some centres unmarked) [Compound 2f], for which the Kd in test [1] (first binding stage) came to 0.0193 ± 0.0094 µM; in test [1] (second binding stage), 0.816 ± 0.467 µM; in test [2], 0.00179 ± 9e-05 µM.
On to `CC1(C)[C@H]2C[C@H](NC(=O)[C@H]3CCCC[C@@H]3NC(=O)C[C@H](CCCNC(=N)N)NC(=O)[C@H]3CCCC[C@@H]3N)[C@@H](C(=O)N[C@@H](CC(=O)O)CC(=O)N[C@H]3CCCC[C@@H]3C(=O)NCC(=O)NCC(=O)N[C@@H](CSC3CC(=O)N(CCC(=O)NCCCC[C@H](NC(=O)CCN4C(=O)CC(SC[C@H](NC(=O)CNC(=O)CNC(=O)[C@H]5CCCC[C@@H]5NC(=O)C[C@H](CC(=O)O)NC(=O)[C@@H]5[C@@H](NC(=O)[C@H]6CCCC[C@@H]6NC(=O)C[C@H](CCCNC(=N)N)NC(=O)[C@H]6CCCC[C@@H]6N)C[C@H]6C[C@@H]5C6(C)C)C(N)=O)C4=O)C(=O)NCCCC[C@H](NC(=O)[C@H](CCCCNC(=O)CCN4C(=O)CC(SC[C@H](NC(=O)CNC(=O)CNC(=O)[C@H]5CCCC[C@@H]5NC(=O)C[C@H](CC(=O)O)NC(=O)[C@@H]5[C@@H](NC(=O)[C@H]6CCCC[C@@H]6NC(=O)C[C@H](CCCNC(=N)N)NC(=O)[C@H]6CCCC[C@@H]6N)C[C@H]6C[C@@H]5C6(C)C)C(N)=O)C4=O)NC(=O)CCN4C(=O)CC(SC[C@H](NC(=O)CNC(=O)CNC(=O)[C@H]5CCCC[C@@H]5NC(=O)C[C@H](CC(=O)O)NC(=O)[C@@H]5[C@@H](NC(=O)[C@H]6CCCC[C@@H]6NC(=O)C[C@H](CCCNC(=N)N)NC(=O)[C@H]6CCCC[C@@H]6N)C[C@H]6C[C@@H]5C6(C)C)C(N)=O)C4=O)C(=O)N[C@@H](CCCCNC(=O)CCCC[C@@H]4SC[C@@H]5NC(=O)N[C@@H]54)C(N)=O)C3=O)C(N)=O)[C@@H]1C2` (some centres unmarked) [Compound 2h], for which the figures for the dissociation constant Kd in test [1] (first binding stage), in test [1] (second binding stage) and in test [2] were 0.00861 ± 0.00564 µM, 0.079 ± 0.0459 µM and 0.00135 ± 8e-05 µM, respectively.
In the case of “Aβ oligomers: oligomers of amyloid β (1–42) prepared from Ser26 depsipeptide iso-Aβ (1–42)”, the “tissue viability, Aβ oligomers alone” value in test [3] is reported as 43.2 ± 1.6 % of control. The “viability, Aβ alone” value in test [4] is reported as 85.1 ± 2.6 % of control.

The values above are taken from article PMC6222781, “Structural Optimization of Foldamer-Dendrimer Conjugates as Multivalent Agents against the Toxic Effects of Amyloid Beta Oligomers” (Molecules : A Journal of Synthetic Chemistry and Natural …, 2018).
